Data on 3 compounds can be found in patent US20150133390A1, “Identification of New Therapeutic Uses for Known Therapeutic Agents” (The Board of Trustees of the Leland Stanford Junior …, priority 2012, published 2015).

The structures appear in SMILES notation. Entries after “also recorded” stand apart in the source; their conditions may differ.

Test [1] concerns INPP5D. The settings on record: van Leuven et al., 2010; cited from earlier work.
In test [2] the test system is FVB donor hearts implanted into C57BL/6 WT mice (cardiac allograft). Kind of test: Graft survival in murine heterotopic cardiac transplant model of acute rejection. Conditions: for allograft survival compared to untreated AR / Median survival: FVB-to-C57BL/6 cardiac transplant; for allograft survival compared to untreated AR: 6 pairs per group; for Median survival: atorvastatin 75 and dasatinib 25 mg/kg/day oral gavage, cyclosporine 20 mg/kg/day i.p., followed to POD 30, untreated AR 10 days. The test is classed as in vivo, mouse. The procedure:
(§1) FVB donor hearts were implanted into the abdomen of C57BL/6 WT mice representing a complete MHC mismatch, as described previously. […] Animal activity, body weight and graft viability (abdominal palpation) were assessed daily.
(§2) Before oral gavages of Atorvastatin and Dasatinib, aliquots were mixed thoroughly. Unused formulations were discarded. Treatment started the day prior to transplantation and lasted until the day before sacrifice at post operation day 7 by exsanguination. Grafts were harvested and divided into three equal parts for downstream analyses.
Graft viability (abdominal palpation) were assessed daily for these animals until post operation day 30.

The subject of test [3] is graft infiltrating cells in cardiac allograft. Kind of test: Graft histology / immunohistochemistry of infiltrating cells at POD 7. The class given is in vivo, mouse. Conditions: for number of infiltrating cells (immunohistochemistry): POD 7, compared to untreated AR. As to the method:
as §1, §2
One third of the explanted allograft heart (POD7) was immediately fixed in […] buffered formalin, embedded in paraffin and subsequently stained with hematoxylin and eosin for histological assessment of tissue according to standard protocols. Pictures of the graft tissue were taken at 10× magnification using a Nikon E600 light microscope (Nikon Instruments Inc., Melville, N.Y.) and Spot V4.6 imaging software (Spot Imaging, Sterling Heights, Mich.).

For test [4], the system named is infiltrating cell subsets in cardiac allografts. Kind of test: Flow cytometry count of infiltrating cell subsets in cardiac allografts. The test is classed as in vivo, mouse. The settings on record: for number of infiltrating B220+ B cells compared to cyclosporine: POD 7, compared to cyclosporine group; for number of CD45+ infiltrating cells / number of infiltrating B220+ B cells / number of infiltrating CD4+ T cells / number of infiltrating CD8+ T cells / number of infiltrating CD11c+ dendritic cells / number of infiltrating F4/80+ macrophages / number of infiltrating NK1.1+ natural killer cells: POD 7, compared to untreated AR. As to the method: as §1, §2
Fluorescein isothiocyanate (FITC), phycoerythin (PE), or allophycocyanin-conjugated mAbs specific for mouse CD4 (GK1.5), CD8a (53-6.7), F4/80 (BM8), B220 (RA3-6B2), Gr1 (RB6-8C5), CD11c (N418), NK1.1 (PK136), CD45 (30-F11), and their isotype controls were purchased from BD Biosciences (San Jose, Calif.), eBioscience (San Diego, Calif.), or BioLegend (San Diego, Calif.). Immediately after graft explantation at day 7 post transplantation, one third of the cardiac allograft was homogenized in RPMI 1640 media with 2 mg/mL Collagenase D (Worthington Bio) and 10% FCS for 2 h at RT. Cells were first incubated with normal hamster serum, normal mouse serum (Jackson ImmunoResearch), and 5 μg/ml anti-CD16/32 mAb (2.4G2; BD Bioscience), then stained with FITC-, PE-, and APC-conjugated mAbs for 30 min at 4° C. To exclude the dead cells, 7-Amino-Actinomycin D (BD Bioscience) was added and incubated for 10 minutes before analysis. Expression of markers was determined by FACS Calibur (BD Bioscience) and FlowJo software (Tree Star).
Background: Flow cytometry measures light scatter and fluorescence of single cells or particles in a stream.

Test [5] concerns CRM genes. Kind of test: Transcriptional analysis of mouse heart allografts (microarray with IPA pathway analysis, Q-PCR of CRM genes). Conditions: treatment group against untreated AR group. The class given is in vivo. As to the method: We performed functional pathway analysis using Pathway-Express (PE). We used meta effect-size as fold change in PE to identify significant pathways. We used FDR<0.1 as a threshold for identifying significant pathways. We performed network analysis using IPA with option to only include “direct relationship” in order to avoid spurious connections due to “indirect relations”.
QRT-PCR for the CIRM module genes in mouse allografts was performed using a high-throughput RT-PCR instrument (BioMark; Fluidigm, San Francisco, Calif.). […] Data was analyzed using the BioMark RT-PCR Analysis Software Version 2.0. Using the delta Ct method, gene expression in each sample was calculated relative to the expression in a universal RNA sample (human universal RNA, Stratagene, CA). […]
For whole mouse genome expression analysis, Agilent Whole Mouse Genome 4×44K 60mer oligonucleotide arrays (G2519F, Agilent Technologies, Palo Alto, Calif.) were used. […] After purification, using the RNeasy mini kit (Qiagen), cRNA yield and Cy incorporation efficiency (specific activity) into the cRNA were determined using a NanoDrop Spectrophotometer (NanoDrop Technologies). cRNAs showing a yield >825 ng and a specific activity of 8-20 pmol/μg were selected for further processing. […]

For `COc1c(C)c2c(c(O)c1C/C=C(\C)CCC(=O)OCCN1CCOCC1)C(=O)OC2` [Mycophenolate mofetil], in test [1], the “reduction of expression of INPP5D” value is on record as “more than 2 fold”.
Regarding `CC(C)c1c(C(=O)Nc2ccccc2)c(-c2ccccc2)c(-c2ccc(F)cc2)n1CC[C@@H](O)C[C@@H](O)CC(=O)O` [atorvastatin], in test [2], the “allograft survival compared to untreated AR” value was “significantly extended allograft survival” and the Median survival amounted to 17 days. The “number of infiltrating cells (immunohistochemistry)” value in test [3] was “significantly reduced; also recorded: fewer infiltrating cells”. Besides, in test [4], the “number of infiltrating B220+ B cells compared to cyclosporine” value is given as “reduced”, the “number of CD45+ infiltrating cells” value is recorded as “significantly reduced”, the “number of infiltrating B220+ B cells” value is recorded as “significantly reduced” and the “number of infiltrating CD4+ T cells” value is listed as “reduced”. Moreover, in test [4], the “number of infiltrating CD8+ T cells” value is listed as “reduced”, the “number of infiltrating CD11c+ dendritic cells” value is “significantly reduced”, the “number of infiltrating F4/80+ macrophages” value is given as “significantly reduced” and the “number of infiltrating NK1.1+ natural killer cells” value is given as “significantly reduced”. In addition, in test [5], the “pathways affected (IPA pathway analysis of down-regulated genes)” value was “monocyte- and macrophage-related pathways”.
Regarding `Cc1nc(Nc2ncc(C(=O)Nc3c(C)cccc3Cl)s2)cc(N2CCN(CCO)CC2)n1` [dasatinib], the “hazard ratio for graft survival” value in test [2] (Cox-proportional hazard analysis, treated compared to untreated AR) was 66.26. Besides, in test [2], the “allograft survival compared to untreated AR” value is reported as “significantly extended allograft survival” and the Median survival is 24.5 days. Also, the “number of infiltrating cells (immunohistochemistry) relative to cyclosporine” value in test [3] (POD 7, compared to treatment with cyclosporine (p>0.05)) is reported as “equivalent”. In addition, the “number of infiltrating cells (immunohistochemistry)” value in test [3] is reported as “significantly reduced; also recorded: fewer infiltrating cells”. For the same compound, in test [4], the “number of infiltrating B220+ B cells compared to cyclosporine” value is “reduced”, the “number of CD45+ infiltrating cells” value is on record as “significantly reduced”, the “number of infiltrating B220+ B cells” value is recorded as “significantly reduced” and the “number of infiltrating CD4+ T cells” value was “reduced”. In test [4], the “number of infiltrating CD8+ T cells” value is listed as “reduced”, the “number of infiltrating CD11c+ dendritic cells” value is reported as “significantly reduced”, the “number of infiltrating F4/80+ macrophages” value was “significantly reduced” and the “number of infiltrating NK1.1+ natural killer cells” value is recorded as “significantly reduced”. The “pathways affected (IPA pathway analysis of down-regulated genes)” value in test [5] is listed as “cell cycle-related pathways”.
